The values that follow come from patent US20230061417A1, “THIENOPYRIMIDINE DERIVATIVES AS LPA RECEPTOR 2 INHIBITORS” (CHIESI FARMACEUTICI S.P.A., priority 2019, published 2023).

SMILES strings stand for the structures.

For the first test, the target named is T1, human recombinant LPA2 (Homo sapiens, UniProt Q9HBW0).
T1 construct: expressed in transfected cells; host or cells: CHO (CHO-hLPA2 cell line)
T1 sequence (Q9HBW0 whole entry): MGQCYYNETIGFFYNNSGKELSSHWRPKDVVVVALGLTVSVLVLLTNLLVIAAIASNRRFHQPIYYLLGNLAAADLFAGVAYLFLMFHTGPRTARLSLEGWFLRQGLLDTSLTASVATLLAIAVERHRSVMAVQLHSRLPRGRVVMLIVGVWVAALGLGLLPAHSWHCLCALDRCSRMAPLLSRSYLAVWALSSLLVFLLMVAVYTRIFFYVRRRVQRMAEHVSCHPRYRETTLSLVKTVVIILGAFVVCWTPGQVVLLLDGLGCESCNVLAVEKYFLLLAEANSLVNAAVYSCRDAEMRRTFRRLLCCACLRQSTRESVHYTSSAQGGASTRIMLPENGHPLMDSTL
In words: FLIPR calcium mobilization assay, LPA2 antagonism in CHO-hLPA2 cells. Format: cell-based. Conditions: human recombinant LPA2 in CHO cells, LPA EC80 stimulation, 30 min pre-incubation; read-out: LPA2 IC50. The protocol: The effectiveness of compounds of the present invention as LPA2 antagonist can be determined at the human recombinant LPA2 expressed in CHO cells, using a FLIPR assay in 384 well format.
CHO-hLPA2 cell lines are cultured in a humidified incubator at 5% CO2 in DMEM/F-12 (1:1) MIXTURE with 2 mM Glutamax, supplemented with 10% of Foetal Bovine Serum, 1 mM Sodium Pyruvate, 11 mM Hepes and 1× Penicillin/Streptomycin. CHO hLPA2 cells are seeded into black walled clear-bottom 384-well plates (#781091, Greiner Bio-One GmbH) at a density of 7,500 cells per well in 50 μl culture media and grown overnight in a 37° C. humidified CO2-incubator. Serial dilutions (1:3 or 1:4, 11 points CRC) of compounds are performed in 100% DMSO at 200× the final concentration. The compounds are diluted 1:50 prior to the experiment with Assay Buffer (20 mM HEPES, 145 mM NaCl, 5 mM KCl, 5.5 mM glucose, 1 mM MgCl2 and 2 mM CaCl2, pH 7.4 containing 0.01% Pluronic F-127) to obtain a solution corresponding to […] the final concentration in the assay (4×, 2% DMSO). The final concentration of DMSO in the assay will be 0.5% in each well. Medium is removed by aspiration and cells are then incubated with 30 μl of a loading solution containing 5 μM of the cytoplasmic Ca2+ indicator Cal-520 AM in Assay Buffer containing 2.5 mM probenecid for 30 min at 37° C. incubator (cell loading). The loaded cell plates are transferred into the FLIPR instrument and calcium responses are monitored during the on-line addition protocols. For testing of compounds, after the cell loading, 10 μl/well of 4× antagonists' solution was added onto the cells. After 30 min pre-incubation (at 37° C.), 10 μl/well of 5× concentrated LPA EC80 was added and Ca2+ mobilization responses was followed during the on-line addition protocol. Intracellular peak fluorescence values subtracted by baseline fluorescence are exported and analysed to determine IC50 values, respectively. The calcium response is expressed as percentage of the maximal inhibition of the EC80 agonist response.
The raw data (peak height expressed as relative fluorescence units) are normalized and transformed into “percent of inhibition”. Curve fitting and pIC50 (−Log IC50) estimations are carried out using a four-parameter logistic model using XLfit Software.
As a reminder, the IC50 is the midpoint of a concentration-inhibition curve. Consider `Cc1noc(-c2ccc(S(=O)(=O)N3CCN(C[C@H](C)Nc4ncnc5c(C)csc45)CC3)s2)c1C` [Example 28, N-[(2S)-1-(4-{[5-(3,4-dimethyl-1,2-oxazol-5-yl)thiophen-2-yl]sulfonyl}piperazin-1-yl)propan-2-yl]-7-methylthieno[3,2-d]pyrimidin-4-amine], for which the IC50 lay in the range of 10 to 100 nM. As for `Cc1csc2c(N[C@@H](C)CN3CCN(S(=O)(=O)c4ccc(F)c(Cl)c4)CC3)ncnc12` [Example 9, N-[(2S)-1-[4-(3-chloro-4-fluorobenzenesulfonyl)piperazin-1-yl]propan-2-yl]-7-methylthieno[3,2-d]pyrimidin-4-amine], the IC50 is under 1000 nM.

In the case of `Cc1nc(-c2ccc(S(=O)(=O)N3CCN(C[C@H](C)Nc4ncnc5c(C)csc45)CC3)s2)cs1` [Example 27, 7-methyl-N-[(2S)-1-(4-{[5-(2-methyl-1,3-thiazol-4-yl)thiophen-2-yl]sulfonyl}piperazin-1-yl)propan-2-yl]thieno[3,2-d]pyrimidin-4-amine], the IC50 was under 1000 nM. For `Cc1csc2c(N[C@@H](C)CN3CCN(S(=O)(=O)c4cnc(-c5ccccc5)nc4)CC3)ncnc12` [Example 15, 7-methyl-N-[(2S)-1-{4-[(2-phenylpyrimidin-5-yl)sulfonyl]piperazin-1-yl}propan-2-yl]thieno[3,2-d]pyrimidin-4-amine], the IC50 was under 1000 nM. `Cc1nc2ccc(S(=O)(=O)N3CCN(C[C@H](C)Nc4ncnc5c(C)csc45)CC3)cc2s1` [Example 23, 7-methyl-N-[(2S)-1-{4-[(2-methyl-1,3-benzothiazol-6-yl)sulfonyl]piperazin-1-yl}propan-2-yl]thieno[3,2-d]pyrimidin-4-amine]: the IC50 is under 1000 nM. The same measure, in the same setting: to `CC(=O)Nc1ncc(S(=O)(=O)N2CCN(C[C@H](C)Nc3nc(C4CC4)nc4c(C)csc34)CC2)s1` [Example 22, N-[5-({4-[(2S)-2-({2-cyclopropyl-7-methylthieno[3,2-d]pyrimidin-4-yl}amino)propyl]piperazin-1-yl}sulfonyl)-1,3-thiazol-2-yl]acetamide] belongs under 1000 nM; to `Cc1csc2c(N[C@@H](C)CN3CCN(S(=O)(=O)c4cccc(Br)c4)CC3)ncnc12` [Example 7, N-[(2S)-1-[4-(3-bromobenzenesulfonyl)piperazin-1-yl]propan-2-yl]-7-methylthieno[3,2-d]pyrimidin-4-amine], under 1000 nM. The same measure, in the same setting: then `Cc1nc(NC(=O)C2CN(C(=O)OC(C)(C)C)C2)sc1S(=O)(=O)N1CCN(C[C@H](C)Nc2ncnc3c(C)csc23)CC1` [Example 33, tert-butyl 3-{[4-methyl-5-({4-[(2S)-2-({7-methylthieno[3,2-d]pyrimidin-4-yl}amino)propyl]piperazin-1-yl}sulfonyl)-1,3-thiazol-2-yl]carbamoyl}azetidine-1-carboxylate], with under 1000 nM. Take `CCc1nc(N[C@@H](C)CN2CCN(S(=O)(=O)c3sc(NC(C)=O)nc3C)CC2)c2scc(C)c2n1` [Example 36, N-[5-({4-[(2S)-2-({2-ethyl-7-methylthieno[3,2-d]pyrimidin-4-yl}amino)propyl]piperazin-1-yl}sulfonyl)-4-methyl-1,3-thiazol-2-yl]acetamide]: the half-maximal inhibitory concentration (IC50) is under 1000 nM. Regarding `COC(=O)Nc1nc(C)c(S(=O)(=O)N2CCN(C[C@H](C)Nc3nc(C)nc4c(C)csc34)CC2)s1` [Example 37, Methyl N-[5-({4-[(2S)-2-({2,7-dimethylthieno[3,2-d]pyrimidin-4-yl}amino)propyl]piperazin-1-yl}sulfonyl)-4-methyl-1,3-thiazol-2-yl]carbamate], the concentration for half-maximal inhibition (IC50) is under 1000 nM.

The test is the same for the next values; noted with them: same in vitro assay as Table 2; read-out: IC50 on LPA2 receptor.
Consider `COC(=O)Nc1nc(C)c(S(=O)(=O)N2CCN(C[C@H](C)Nc3ncnc4c(-c5cccnc5)cn(C)c34)CC2)s1` [comparative Example A, Methyl (S)-(4-methyl-5-((4-(2-((5-methyl-7-(pyridin-3-yl)-5H-pyrrolo[3,2-d]pyrimidin-4-yl)amino)propyl)piperazin-1-yl)sulfonyl)thiazol-2-yl)carbamate, reference compound], for which the IC50 is over 2000 nM.
